Test results as given in US4314061A, “Certain 3,6-bis-(heteroaminoalkoxy) acridines” (priority 1980, dated 1982).

What was measured:
[1] = test system: Lewis lung carcinoma; assay: Antitumor activity against intravenously inoculated Lewis lung carcinoma in mice; assay type: in vivo, BDF1 mice; conditions: Day +19
Method: Lewis lung carcinoma cells, 5×10^5 viable cells, were injected intravenously into BDF1 mice. The drug was prepared in normal saline and administered once daily, by the oral route, at doses ranging from 38 mg./kg to 400 mg/kg on days 1, 7, and 13 following tumor cell inoculation. A control group of mice received a saline placebo, instead of drug, by the oral route on the same days of treatment. All mice were sacrificed on day 19 following tumor inoculation, their lungs removed and individually weighed. Additionally, a group of 10 normal, non-tumor bearing BDF1 mice, of the same sex, age, and body weight as the tumor bearing mice, were sacrificed and their lungs removed and weighed to determine the average normal lung weight. The average normal lung weight was subtracted from the weight of lungs from the tumored mice to determine the weight of tumorous tissue present in the lungs of the tumor bearing mice. A postive drug effect is indicated by a ≥58% reduction in the average lung tumor weight of the drug treated mice, relative to the average lung tumor weight of the saline placebo treated mice.
^1 BDF1 male mice inoculated intravenously with 5 ×
10^5 Lewis lung tumor cells on day zero:
3,6bis(2-diethylaminoethoxy)acridine trihydrochloride administered on day
1,7, and 13 after tumor inoculation.
^2 Average lung tumor weight = average weight of lungs from tumor
bearing mice, minus average weight of lungs from normal, nontumor bearing
*Denotes significant (≥58%) inhibition of lung tumor weight.

[2] = test system: Columbia SK virus; assay: Antiviral effects against an interferon-sensitive virus, Columbia SK; assay type: in vivo, Taconic Farms male, white mice; conditions: 400 mg/kg oral, 18 hours before infection; 14 days post injection
Method: Taconic Farms male, white mice, weighing 18-24 g were treated by gavage, 18 hours before infection with a test compound suspended or dissolved in 1.0 ml of 0.2% aqueous agar solution. The mice were then infected by subcutaneous injection with one LD95 of Columbia SK virus in 0.2 ml of distilled water. Groups of infected, untreated mice were used as controls to show the lethality of the infection. The test duration was 14 days.

[3] = test system: B16 melanoma; assay: Surgical-adjuvant antitumor activity against B16 melanoma implanted subcutaneously in footpads; assay type: in vivo, BDF1 mice; conditions: for Average % of tumor weight inhibition / Average tumor weight: Day +21; for No. Survivors/No. Treated: at +90 days
Method: BDF1 mice were inoculated subcutaneously in the right hind footpad with 5×10^5 viable B16 melanoma cells, on day zero. The drug was prepared in normal saline and administered by the oral route once daily, on days 1, 7, and 13 following tumor implantation, at doses range from 50 mg/kg to 400 mg/kg. A control group of mice received a saline placebo instead of drug, and another group of tumor bearing mice received the positive control drug cyclophosphamide, at 100 mg/kg, by intraperitoneal injection. On the 21st day after tumor implantation, the mice were anesthesized with Nembutal, and the tumor bearing feet were surgically amputated above the ankle joint. The surgical incision was swabbed with alcohol and sealed with stainless steel wound clips. The tumor bearing feet were individually weighed and the average weight of a normal foot (determined by weighing amputated feet from non-tumor bearing mice of the same sex, age, and body weight) was subtracted to obtain the weight of tumor tissue in the amputated feet. Mice were then observed for deaths until the 90th day after tumor implantation. […]
^1 BDF1 male mice inocluated with 5 × 10^5 B16 melanom
cells subcutaneously in footpad on day zero;
3,6bis(2-diethylaminoethoxy)acridine trihydrochloride administered orally
and Cyclophosphamide intraperitoneally, on days 1, 7, and 13 following
^2 Average tumor weight determined after surgical amputation of tumor
bearing foot on day 21 following tumor implantation.

[4] = test system: normal mouse bone marrow; assay: Effect on normal mouse bone marrow; assay type: in vivo, C57 BL6 male mice; conditions: 24 hours after treatment; test compound oral, Cytoxan intraperitoneal
Method: The effect of drugs on normal mouse bone marrow is evaluated by determining total cell counts of femurs and by the ability of surviving cells to form colonies in semi-solid medium. The test compound is administered orally and the reference drug Cytoxan is administered intraperitoneally to C57 BL6 male mice. One femur from each of three mice per dose level is assayed 24 hours after treatment. Counts of nucleated cells are performed on pooled marrow suspensions and the clonogenic assay is performed by plating 50,000 cells in one ml. of culture medium in each of four culture dishes. The medium to support bone marrow progenitor cell growth is McCoy's medium supplemented with 0.9% methocel, 1.8% human serum albumin, 10% bovine fetal serum and 10% "conditioned" L-cell medium. Cultures are incubated at 37° C. in a humidified atmosphere and colonies are counted at seven days.

[5] = test system: circulating interferon; assay: Induction of circulating interferon in mice; assay type: in vivo, BDF1 mice; conditions: 300 mg/kg single oral
[6] = test system: Columbia SK virus; assay: Protection of mice against lethal Columbia SK virus infection by oral pre-treatment; assay type: in vivo, random-bred Swiss male mice; conditions: 400 mg/kg oral
Method: At 24, 48, 72 and 96 hours after drug treatment, separate groups of mice were injected SC with an LD95 dose of the interferon sensitive virus, Columbia SK. […] Typically, protection from lethal infection with Columbia SK virus is associated with induction of interferon.

[7] = test system: Rauscher Virus-Induced Leukemia; assay: Restoration of antibody formation in mice with Rauscher virus-induced leukemia; assay type: in vivo, Balb/c mice; conditions: 100 mg/kg IP
[8] = 300 mg/kg oral, * significant (≥58%)
[9] = 400 mg/kg oral, * significant (≥58%)

CCN(CC)CCOc1ccc2cc3ccc(OCCN(CC)CC)cc3nc2c1.Cl.Cl.Cl
Average % tumor inhibition ([1]; 38 mg/kg oral): 33% | Average lung tumor weight ([1]; 38 mg/kg oral): 99 mg | No. Survivors/No. Treated ([1]; 38 mg/kg oral): 10/12 | Average % tumor inhibition ([1]; 75 mg/kg oral): 5% | Average lung tumor weight ([1]; 75 mg/kg oral): 139 mg | No. Survivors/No. Treated ([1]; 75 mg/kg oral): 12/12 | Average % tumor inhibition ([1]; 150 mg/kg oral): 51% | Average lung tumor weight ([1]; 150 mg/kg oral): 72 mg | No. Survivors/No. Treated ([1]; 150 mg/kg oral): 12/12 | Average lung tumor weight ([1]; 300 mg/kg oral): 40 mg | No. Survivors/No. Treated ([1]; 300 mg/kg oral): 12/12 | Average % tumor inhibition [1, 8]: 73% | Average lung tumor weight ([1]; 400 mg/kg oral): 12 mg | No. Survivors/No. Treated ([1]; 400 mg/kg oral): 10/12 | Average % tumor inhibition [1, 9]: 92% | Survivors/Total [2]: 10/15 | % Increased life-span ([3]; 50 mg/kg oral): 2% | Median survival time ([3]; 50 mg/kg oral): 54.0 days | Average % of tumor weight inhibition ([3]; 50 mg/kg oral): 33% | Average tumor weight ([3]; 50 mg/kg oral): 403 mg | No. Survivors/No. Treated ([3]; 50 mg/kg oral): 0/12 | % Increased life-span ([3]; 100 mg/kg oral): 21% | Median survival time ([3]; 100 mg/kg oral): 64.0 days | Average tumor weight ([3]; 100 mg/kg oral): 225 mg | Average % of tumor weight inhibition ([3]; 100 mg/kg oral, * significant (≥58%)): 63% | No. Survivors/No. Treated ([3]; 100 mg/kg oral): 2/12 | Median survival time ([3]; 200 mg/kg oral): > 90.0 days | Average tumor weight ([3]; 200 mg/kg oral): 122 mg | Average % of tumor weight inhibition ([3]; 200 mg/kg oral, * significant (≥58%)): 80% | No. Survivors/No. Treated ([3]; 200 mg/kg oral, ** significant): 7/12 | % Increased life-span ([3]; 200 mg/kg oral, + significant (≥25%)): > 70% | Median survival time ([3]; 300 mg/kg oral): > 90.0 days | Average tumor weight ([3]; 300 mg/kg oral): 63 mg | Average % of tumor weight inhibition [3, 8]: 90% | No. Survivors/No. Treated ([3]; 300 mg/kg oral, ** significant): 8/12 | % Increased life-span ([3]; 300 mg/kg oral, + significant (≥25%)): > 70% | Median survival time ([3]; 400 mg/kg oral): 69.0 days | Average tumor weight ([3]; 400 mg/kg oral): 51 mg | Average % of tumor weight inhibition [3, 9]: 92% | No. Survivors/No. Treated ([3]; 400 mg/kg oral, ** significant): 5/12 | % Increased life-span ([3]; 400 mg/kg oral, + significant (≥25%)): 30% | Effect on total nucleated cell count of femur marrow, in words [4]: minimal effects on the total nucleated cell count | Induction of circulating interferon, in words [5]: induced the production of high levels of circulating interferon | Time of peak titers of interferon after drug administration [5]: 16 to 24 h | Serum interferon titer ([5]; 0 hours): 10 units/ml | Serum interferon titer ([5]; 8 hours): 100 units/ml | Serum interferon titer ([5]; 16 hours): 3200 units/ml | Serum interferon titer ([5]; 24 hours): 3200 units/ml | Serum interferon titer ([5]; 32 hours): 2100 units/ml | Serum interferon titer ([5]; 48 hours): 50 units/ml | Interferon titer 72 hours after drug treatment, in words ([5]; 72 hours): at normal levels | Serum interferon titer ([5]; 72 hours): 10 units/ml | Survivors/Total (14 Days) ([6]; -24 hr relative to virus challenge, * p <.01): 19/20 | Survivors/Total (14 Days) ([6]; -48 hr relative to virus challenge, * p <.01): 10/20 | Survivors/Total (14 Days) ([6]; -72 hr relative to virus challenge): 1/20 | Survivors/Total (14 Days) ([6]; -96 hr relative to virus challenge): 1/20 | Serum hemagglutinin titer/saline control titer [7]: 512/32
